Reference: PMC13588620, “Linear antibody epitope prediction using AlphaFold2” (eLife, 2026)
“Also recorded” adds a separate entry of the source.

Each sequence was assayed on mBG17 binding to SARS-CoV-2 nucleocapsid protein (assay: Alanine-scan peptide competition ELISA with serial peptide dilution). Settings: 4-fold serial dilution of peptide from 40 μg to ~2.5 ng; absorbance at 450 nm; n=3; percentage of binding from no-peptide control.
Parameters: species or system mouse

| Sequence | competition of mBG17 binding to nucleocapsid protein by alanine mutant peptides, compared with the WT peptide |
| --- | --- |
| ADFSKQLQQS [D1A] | no change in competition; also recorded: less disruptive to binding |
| DDFSKQLQQS [a.a. 401–410] | strong competition |
| DDASKQLQQS [F3A] | strong reductions in competition |
| DDFSKQLAQS [Q8A] | strong reductions in competition |
| DDFSKQAQQS [L7A] | strong reductions in competition |
| DDFSKALQQS [Q6A] | minor reductions in competition; also recorded: less disruptive to binding |
